Experimental data from patent publication US20250268871A1, “NEW CRYSTAL FORM OF NITROGEN-CONTAINING TRICYCLIC COMPOUND AND USE THEREOF” (SUNSHINE LAKE PHARMA CO., LTD., priority 2021, published 2025).

Columns and labels:
[1] = Hygroscopicity experiment (dynamic vapor sorption); format: physicochemical; settings: relative humidity of 80%, criterion of hygroscopic weight gain
Method: The description of the hygroscopic characteristics and the definition of the hygroscopic weight gain (Appendix 9103 of Chinese Pharmacopoeia 2020 Edition, Guidelines for Drug Hygroscopicity Tests, experimental conditions: 25° C.±1° C., 80%+2% relative humidity) are described in the table below:
The hygroscopicity of the present invention is measured using the DVS INT-Std dynamic moisture and gas adsorption analyzer of the Surface Measurement Systems Company in UK. The humidity test range was 0%-95%, the air flow was 200 mL/min, the temperature was 25° C., test point: take one test point per […] 5% humidity.
An appropriate amount of the test sample was taken and the hygroscopicity of the test sample was tested by dynamic moisture adsorption device. It can be seen from FIG. 4 that the weight gain of the crystal form J according to the present invention is more than 0.2% but less than 2% after equilibrium under the condition of a relative humidity of 80%. […] Therefore, the crystal form J of the invention is not susceptible to deliquescent under the influence of high humidity, which is convenient for the long-term storage of the medicine.

[2] = Stability experiment (high-temperature, high-humidity, photostability); format: physicochemical
Method: (§1) (1) High-temperature test: A batch of the test sample was taken and put into a flat weighing bottle, divided into ≤5 mm thick thin layer. The sample was placed at 60° C. for 30 days. The sample was then sampled at day 5, day 13 and day 30, and the change of the sample's color was observed. The purity of the sample was detected by HPLC.
(2) High-humidity test: A batch of the test sample was taken and put into a flat weighing bottle, divided into ≤5 mm thick thin layer. The sample was placed at 25° C. and RH for 90%±5% for 30 days. The sample wad sampled at day 5, day 13 and day 30, and the change of the sample's color was observed. The purity of the sample was detected by HPLC.
as §1, with “(3) Photostability” for “(1) High-temperature”, “taken” for “taken and put”, “placed in an opened light box (with UV)” for “placed”, “the illuminance 4500+5001x, UV light ≥0.7w/m2” for “60° C.”

[3] = Pharmacokinetic experiment, oral capsules in Beagle dogs; format: in vivo; settings: dog, plasma, male Beagle dogs, 5 mg/kg
Method: The crystal form of the compound having Formula (I) was filled into capsules, which were used for oral administration.
Three male Beagle dogs weighing 8-12 kg were orally administered with capsules containing the test sample at a dose of 5 mg/kg, and blood samples were taken at time points of 0.25 h, 0.5 h, 1.0 h, 2.0 h, 4.0 h, 6.0 h, 8.0 h and 24 h. Standard curve was plotted based on concentrations of the samples in a suitable range, the concentration of the test sample in the plasma sample was measured and quantified by AB SCIEX API4000 LC-MS/MS at MRM mode. Pharmacokinetic parameters were calculated according to drug concentration-time curve using a noncompartmental method by WinNonLin 6.3 software.

hygroscopic characteristics [1]: lightly hygroscopic | crystal structure stability ([2]; high temperature, high humidity and/or lighting conditions): remains basically unchanged | AUC(0-t) [3]: 885 ng·h/mL | Cmax [3]: 554 ng/mL | Tmax [3]: 40 min
Compound: O=C(O)c1ccc2c(c1)Oc1ccc(OCc3c(-c4c(Cl)cccc4Cl)noc3C3CC3)nc1C1(CC1)C2 [crystal form J, 2-((5-cyclopropyl-3-(2,6-dichlorophenyl)isoxazol-4-yl)methoxy)-10H-spiro[benzo[6,7]oxepino[3,2-b]pyridine-11,1′-cyclopropane]-7-carboxylic acid]
change in appearance and chemical purity (HPLC) ([2]; 60° C., 25° C. and RH 90%±5%, light box with UV, 30 days, sampled at day 5, 13, 30): no obvious changes in the appearance and chemical purity
